Laboratory results from patent US20050009894A1 (Aventis Pharma S.A., priority 2001, published 2005).

These compounds were tested against T1, human KDR enzyme (Homo sapiens, UniProt P35968) (assay: Phosphorylation of the substrate PLCγ by the enzyme KDR in vitro (flashplate technique)). Settings: Table VII, degrees of activity by IC50 range; read-out: Activity.
T1 construct: The cytoplasmic domain of human KDR enzyme is cloned in the form of a GST fusion; GST; made in house; host or cells: SF21 insect cells (baculovirus, pFastBac)
T1 sequence (P35968 786-1356 limits assumed): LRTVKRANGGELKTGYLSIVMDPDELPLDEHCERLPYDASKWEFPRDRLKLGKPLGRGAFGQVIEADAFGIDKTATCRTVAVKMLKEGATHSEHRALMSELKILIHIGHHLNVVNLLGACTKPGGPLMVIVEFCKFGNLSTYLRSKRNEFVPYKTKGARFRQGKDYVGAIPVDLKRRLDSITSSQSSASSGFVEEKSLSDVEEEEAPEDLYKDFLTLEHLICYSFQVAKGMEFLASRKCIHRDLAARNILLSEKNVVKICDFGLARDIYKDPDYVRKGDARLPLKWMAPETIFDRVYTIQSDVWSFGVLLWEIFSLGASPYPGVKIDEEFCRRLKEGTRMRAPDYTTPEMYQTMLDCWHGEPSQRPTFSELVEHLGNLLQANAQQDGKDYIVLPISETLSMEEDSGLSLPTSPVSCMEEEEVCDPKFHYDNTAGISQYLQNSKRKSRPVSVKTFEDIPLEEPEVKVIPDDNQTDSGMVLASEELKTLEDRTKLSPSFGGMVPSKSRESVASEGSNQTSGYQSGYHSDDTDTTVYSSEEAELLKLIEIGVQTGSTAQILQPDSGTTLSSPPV
Type: biochemical
Procedure, shortened: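 GST-fused human KDR cytoplasmic domain (Sf21 baculovirus, ~60% pure; 100 ng/well) phosphorylating 2 μg GST-PLCγ SH2-SH3 fragment in MOPS pH 7.2 with MgCl2/MnCl2, 1 h at 37° C. Started with γ33P-ATP plus cold ATP (2 μM in start solution); flashplate radioactivity. % inhibition vs no-compound control; IC50 from dose-response curves.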

IC50 [µM]	Compound
0.3 to 3	OCc1cccc(-c2ccc3nc(-c4[nH]nc5ccccc45)[nH]c3c2)c1 [Example 133, {3-[2-(2H-Indazol-3-yl)-3H-benzoimidazol-5-yl]-phenyl}-methanol]
> 3	CCSc1ccc(-c2ccc3nc(-c4[nH]nc5ccccc45)[nH]c3c2)cc1 [Example 134, 3-[6-(4-Ethylsulfanyl-phenyl)-1H-benzoimidazol-2-yl]-2H-indazole]
0.3 to 3	Fc1ccc(-c2ccc3nc(-c4[nH]nc5ccccc45)[nH]c3c2)c(F)c1 [Example 135, 3-[6-(2,4-Difluoro-phenyl)-1H-benzoimidazol-2-yl]-2H-indazole]
> 3	FC(F)(F)Oc1cccc(-c2ccc3nc(-c4[nH]nc5ccccc45)[nH]c3c2)c1 [Example 136, 3-[6-(3-Trifluoromethoxy-phenyl)-1H-benzoimidazol-2-yl]-2H-indazole]
0.3 to 3	Cc1cc(F)ccc1-c1ccc2nc(-c3[nH]nc4ccccc34)[nH]c2c1 [Example 137, 3-[6-(4-Fluoro-2-methyl-phenyl)-1H-benzoimidazol-2-yl]-2H-indazole]
> 3	Fc1ccc(/C=C/c2ccc3nc(-c4[nH]nc5ccccc45)[nH]c3c2)cc1 [Example 138, 3-{6-[2-(4-Fluoro-phenyl)-vinyl]-1H-benzoimidazol-2-yl}-2H-indazole]
> 3	Clc1ccc(/C=C/c2ccc3nc(-c4[nH]nc5ccccc45)[nH]c3c2)cc1 [Example 139, 3-{6-[2-(4-Chloro-phenyl)-vinyl]-1H benzoimidazol-2-yl}-2H-indazole]
> 3	O=C(O)CCc1ccc(-c2ccc3nc(-c4[nH]nc5ccccc45)[nH]c3c2)cc1 [Example 140, 3-{4-[2-(2H-Indazol-3-yl)-3H-benzoimidazol-5-yl]-phenyl}-propionic acid]
0.3 to 3	OCc1ccc(-c2ccc3nc(-c4[nH]nc5ccccc45)[nH]c3c2)cc1 [Example 141, {4-[2-(2H-Indazol-3-yl)-3H-benzoimidazol-5-yl]-phenyl}-methanol]
0.3 to 3	c1coc(-c2ccc3nc(-c4[nH]nc5ccccc45)[nH]c3c2)c1 [Example 142, 3-(6-Furan-2-yl-1H-benzoimidazol-2-yl)-2H-indazole]
> 3	c1ccc(COc2cccc(-c3ccc4nc(-c5[nH]nc6ccccc56)[nH]c4c3)c2)cc1 [Example 143, 3-[6-(3-Benzyloxy-phenyl)-1H-benzoimidazol-2-yl]-2H-indazole]
0.3 to 3	CC(C)c1ccc(-c2ccc3nc(-c4[nH]nc5ccccc45)[nH]c3c2)cc1 [Example 144, 3-[6-(4-Isopropyl-phenyl)-1H-benzoimidazol-2-yl]-2H-indazole]
> 3	CS(=O)(=O)c1ccc(-c2ccc3nc(-c4[nH]nc5ccccc45)[nH]c3c2)cc1 [Example 145, 3-[6-(4-Methanesulfonyl-phenyl)-1H-benzoimidazol-2-yl]-2H-indazole]
0.3 to 3	COc1coc(CNC(=O)c2ccc3[nH]c(-c4n[nH]c5ccccc45)nc3c2)cc1=O [Example 146]
0.3 to 3	CC(=O)Nc1ccc(CNC(=O)c2ccc3[nH]c(-c4n[nH]c5ccccc45)nc3c2)cc1 [Example 147, 2-(1H-Indazol-3-yl)-1H-benzoimidazole-5-carboxylic acid 4-acetylamino-benzylamide]
0.3 to 3	CNC(=O)c1ccc2[nH]c(-c3n[nH]c4ccccc34)nc2c1 [Example 148, 2-(1H-Indazol-3-yl)-1H-benzoimidazole-5-carboxylic acid methylamide]
0.3 to 3	CC(C)NC(=O)c1ccc2[nH]c(-c3n[nH]c4ccccc34)nc2c1 [Example 149, 2-(1H-Indazol-3-yl)-1H-benzoimidazole-5-carboxylic acid isopropylamide]
0.3 to 3	O=C(c1ccc2[nH]c(-c3n[nH]c4ccccc34)nc2c1)N1CCOCC1 [Example 150, [2-(1H-Indazol-3-yl)-1H-benzoimidazol-5-yl]-morpholin-4-yl-methanone]
0.3 to 3	CN1CCN(C(=O)c2ccc3[nH]c(-c4n[nH]c5ccccc45)nc3c2)CC1 [Example 151, [2-(1H-Indazol-3-yl)-1H-benzoimidazol-5-yl]-(4-methyl-piperazin-1-yl)-methanone]
0.3 to 3	CN(Cc1ccccc1)C(=O)c1ccc2[nH]c(-c3n[nH]c4ccccc34)nc2c1 [Example 152, 2-(1H-Indazol-3-yl)-1H-benzoimidazole-5-carboxylic acid benzyl-methyl-amide]
0.3 to 3	O=C(NCc1cccc([N+](=O)[O-])c1)c1ccc2[nH]c(-c3n[nH]c4ccccc34)nc2c1 [Example 153, 2-(1H-Indazol-3-yl)-1H-benzoimidazole-5-carboxylic acid 3-nitro-benzylamide]

IC50 [µM]	Compound
0.3 to 3	O=C(NCc1ccccc1F)c1ccc2[nH]c(-c3n[nH]c4ccccc34)nc2c1 [Example 154, 2-(1H-Indazol-3-yl)-1H-benzoimidazole-5-carboxylic acid 2-fluoro-benzylamide]
0.3 to 3	O=C(NCc1ccc(F)cc1F)c1ccc2[nH]c(-c3n[nH]c4ccccc34)nc2c1 [Example 155, 2-(1H-Indazol-3-yl)-1H-benzoimidazole-5-carboxylic acid 2,4-difluoro-benzylamide]
0.3 to 3	O=C(NCc1c(F)cccc1F)c1ccc2[nH]c(-c3n[nH]c4ccccc34)nc2c1 [Example 156, 2-(1H-Indazol-3-yl)-1H-benzoimidazole-5-carboxylic acid 2,6-difluoro-benzylamide]
< 0.3	O=C(NCc1ccc(Br)cc1F)c1ccc2[nH]c(-c3n[nH]c4ccccc34)nc2c1 [Example 157, 2-(1H-Indazol-3-yl)-1H-benzoimidazole-5-carboxylic acid 4-bromo-2-fluoro-benzylamide]
0.3 to 3	O=C(NCc1ccc(Cl)cc1F)c1ccc2[nH]c(-c3n[nH]c4ccccc34)nc2c1 [Example 158, 2-(1H-Indazol-3-yl)-1H-benzoimidazole-5-carboxylic acid 4-chloro-2-fluoro-benzylamide]
0.3 to 3	O=C(NCc1ccc(Br)cc1F)c1ccc2[nH]c(-c3n[nH]c4ccccc34)nc2c1 [Example 159, 2-(1H-Indazol-3-yl)-1H-benzoimidazole-5-carboxylic acid 4-bromo-2-fluoro-benzylamide]
0.3 to 3	O=C(NCc1ccc(F)c(F)c1)c1ccc2[nH]c(-c3n[nH]c4ccccc34)nc2c1 [Example 160, 2-(1H-Indazol-3-yl)-1H-benzoimidazole-5-carboxylic acid 3,4-difluoro-benzylamide]
0.3 to 3	O=C(NCc1cc(F)c(F)c(F)c1)c1ccc2[nH]c(-c3n[nH]c4ccccc34)nc2c1 [Example 161, 2-(1H-Indazol-3-yl)-1H-benzoimidazole-5-carboxylic acid 3,4,5-trifluoro-benzylamide]
> 3	O=C(NCc1ccc(-c2ccc(Cl)cc2)cc1)c1ccc2[nH]c(-c3n[nH]c4ccccc34)nc2c1 [Example 162, 2-(1H-Indazol-3-yl)-1H-benzoimidazole-5-carboxylic acid (4′-chloro-biphenyl-4-ylmethyl)-amide]
> 3	O=C(NCc1ccc(-c2cc(Cl)cc(Cl)c2)cc1)c1ccc2[nH]c(-c3n[nH]c4ccccc34)nc2c1 [Example 163, 2-(1H-Indazol-3-yl)-1H-benzoimidazole-5-carboxylic acid (3′,5′-dichloro-biphenyl-4-ylmethyl)-amide]
> 3	O=C(NCc1ccc(-c2ccc(F)cc2)cc1)c1ccc2[nH]c(-c3n[nH]c4ccccc34)nc2c1 [Example 164]
> 3	O=C(NCc1ccccc1F)c1ccc2[nH]c(-c3n[nH]c4ccccc34)nc2c1 [Example 165, 2-(1H-Indazol-3-yl)-1H-benzoimidazole-5-carboxylic acid 2-fluoro-benzylamide]
0.3 to 3	Cc1ccc(F)c(CNC(=O)c2ccc3[nH]c(-c4n[nH]c5ccccc45)nc3c2)c1F [Example 166, 2-(1H-Indazol-3-yl)-1H-benzoimidazole-5-carboxylic acid 2,6-difluoro-3-methyl-benzylamide]
< 0.3	O=C(NCc1ccc(Cl)cc1Cl)c1ccc2[nH]c(-c3n[nH]c4ccccc34)nc2c1 [Example 167, 2-(1H-Indazol-3-yl)-1H-benzoimidazole-5-carboxylic acid 2,4-dichloro-benzylamide]
< 0.3	O=C(NCc1ccc(Cl)cc1)c1ccc2[nH]c(-c3n[nH]c4ccccc34)nc2c1 [Example 168, 2-(1H-Indazol-3-yl)-1H-benzoimidazole-5-carboxylic acid 4-chloro-benzylamide]
< 0.3	Cc1cc(Cl)ccc1CNC(=O)c1ccc2[nH]c(-c3n[nH]c4ccccc34)nc2c1 [Example 169, 2-(1H-Indazol-3-yl)-1H-benzoimidazole-5-carboxylic acid 4-chloro-2-methyl-benzylamide]
0.3 to 3	O=C(NCc1ccc(F)cc1)c1ccc2[nH]c(-c3n[nH]c4ccccc34)nc2c1 [Example 170, 2-(1H-Indazol-3-yl)-1H-benzoimidazole-5-carboxylic acid 4-fluoro-benzylamide]
0.3 to 3	O=C(NCc1ccc(-c2ccccc2Cl)cc1)c1ccc2[nH]c(-c3n[nH]c4ccccc34)nc2c1 [Example 171, 2-(1H-Indazol-3-yl)-1H-benzoimidazole-5-carboxylic acid (2′-chloro-biphenyl-4-ylmethyl)-amide]
0.3 to 3	O=C(NCc1ccc(C(F)(F)F)nc1)c1ccc2[nH]c(-c3n[nH]c4ccccc34)nc2c1 [Example 172, 2-(1H-Indazol-3-yl)-1H-benzoimidazole-5-carboxylic acid (6-trifluoromethyl-pyridin-3-ylmethyl)-amide]
0.3 to 3	O=C(NCc1ccc(-c2ccccn2)s1)c1ccc2[nH]c(-c3n[nH]c4ccccc34)nc2c1 [Example 173, 2-(1H-Indazol-3-yl)-1H-benzoimidazole-5-carboxylic acid (5-pyridin-2-yl-thiophen-2-ylmethyl)-amide]
